According to PubChem BioAssay AID256 (DTP/NCI, 2004):
Where “and” joins values, the source holds several entries; their conditions need not be identical. Identical values can stand only once. Inconclusive results and toxic doses are left out. How the source made its calls: active means survival T/C of 150% or more; inactive means T/C below 125% in these data.

Tested on: CD2F1 mice, L1210 leukemia ip, survival T/C
Assay: NCI In Vivo Anticancer Drug Screen. Data for tumor model L1210 Leukemia (intraperitoneal) in CD2F1 (CDF1) mice
Details: higher = longer survival
Method in brief: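 Activity against a transplanted murine tumor was judged by comparing the compound group with a vehicle group. The outcome in the treated animals was divided by that in the controls.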

[1] = endpoint: mean survival time, dose: 100.0 mg/kg/injection, schedule: Q04DX003 (ip), vehicle: saline with Tween-80
[2] = endpoint: mean survival time, dose: 200.0 mg/kg/injection, schedule: Q04DX003 (ip), vehicle: saline with Tween-80
[3] = endpoint: mean survival time, dose: 400.0 mg/kg/injection, schedule: Q04DX003 (ip), vehicle: saline with Tween-80
[4] = endpoint: mean survival time, dose: 15.0 mg/kg/injection, schedule: Q01DX009 (ip), vehicle: saline
[5] = endpoint: mean survival time, dose: 30.0 mg/kg/injection, schedule: Q01DX009 (ip), vehicle: saline
[6] = endpoint: mean survival time, dose: 100.0 mg/kg/injection, schedule: Q01DX001 (ip), vehicle: saline with Tween-80
[7] = endpoint: mean survival time, dose: 200.0 mg/kg/injection, schedule: Q01DX001 (ip), vehicle: saline with Tween-80
[8] = endpoint: mean survival time, dose: 100.0 mg/kg/injection, schedule: Q01DX009 (ip), vehicle: other
[9] = endpoint: mean survival time, dose: 200.0 mg/kg/injection, schedule: Q01DX009 (ip), vehicle: other
[10] = endpoint: mean survival time, dose: 100.0 mg/kg/injection, schedule: Q01DX009 (ip), vehicle: saline with Tween-80
[11] = endpoint: mean survival time, dose: 200.0 mg/kg/injection, schedule: Q01DX009 (ip), vehicle: saline with Tween-80
[12] = endpoint: mean survival time, dose: 400.0 mg/kg/injection, schedule: Q01DX009 (ip), vehicle: saline with Tween-80

Measured: T/C

ClC(Cl)(Cl)C(c1ccccc1)c1ccccc1
inactive: endpoint: mean survival time, dose: 50.0 mg/kg/injection, schedule: Q01DX009 (ip), vehicle: Klucel (hydroxypropylcellulose) (HPC) 96 % of control | endpoint: mean survival time, dose: 100.0 mg/kg/injection, schedule: Q01DX009 (ip), vehicle: Klucel (hydroxypropylcellulose) (HPC) 93 % of control | [1] 101 % of control | endpoint: mean survival time, dose: 200.0 mg/kg/injection, schedule: Q01DX009 (ip), vehicle: Klucel (hydroxypropylcellulose) (HPC) 93 % of control | [2] 95 % of control | [3] 90 % of control

Nc1ccccc1Nc1ccccc1
inactive: endpoint: mean survival time, dose: 100.0 mg/kg/injection, schedule: Q01DX001 (ip), vehicle: saline + alcohol 101 % of control | endpoint: mean survival time, dose: 200.0 mg/kg/injection, schedule: Q01DX001 (ip), vehicle: saline + alcohol 97 % of control

c1ccc(C2CC([P+](c3ccccc3)(c3ccccc3)c3ccccc3)=NN2CC[P+](c2ccccc2)(c2ccccc2)c2ccccc2)cc1 (configuration not stated)
inactive: endpoint: mean survival time, dose: 1.56 mg/kg/injection, schedule: Q04DX003 (ip), vehicle: saline with Tween-80 101 % of control | endpoint: mean survival time, dose: 3.13 mg/kg/injection, schedule: Q04DX003 (ip), vehicle: saline with Tween-80 96 % of control | endpoint: mean survival time, dose: 6.25 mg/kg/injection, schedule: Q04DX003 (ip), vehicle: saline with Tween-80 93 % of control

CCC(=N\N=C(N)N)/C(C)=N\N=C(N)N
inactive: [4] 95 % of control | [5] 91 % of control

O=S1(=O)CCS(=O)(=O)C1
inactive: endpoint: mean survival time, dose: 50.0 mg/kg/injection, schedule: Q01DX001 (ip), vehicle: saline with Tween-80 104 % of control | [6] 98 % of control | [7] 95 % of control

CCOC(=O)/C=C(\C)Nc1cccc(NC(C)=O)c1
inactive: endpoint: mean survival time, dose: 12.5 mg/kg/injection, schedule: Q01DX009 (ip), vehicle: other 97 % of control | endpoint: mean survival time, dose: 25.0 mg/kg/injection, schedule: Q01DX009 (ip), vehicle: other 91 % of control | endpoint: mean survival time, dose: 50.0 mg/kg/injection, schedule: Q01DX009 (ip), vehicle: other 91 % of control | [8] 100 % of control | [9] 91 % of control

CCCCN(CCCC)CCCN1C(=O)c2ccccc2C1=O
inactive: endpoint: mean survival time, dose: 1.9 mg/kg/injection, schedule: Q01DX009 (ip), vehicle: saline 97 % of control | endpoint: mean survival time, dose: 3.7 mg/kg/injection, schedule: Q01DX009 (ip), vehicle: saline 107 % of control | endpoint: mean survival time, dose: 7.5 mg/kg/injection, schedule: Q01DX009 (ip), vehicle: saline 100 % of control | [4] 87 % of control | [5] 89 % of control and 105 % of control

C/C=C(\C)C(=O)OC1C(C)=C2C(C1OC(=O)CCCCC)C(C)(OC(C)=O)CC(OC(=O)CCC)C1(O)C2OC(=O)C1(C)O (configuration not stated)
inactive: endpoint: median survival time, dose: 0.5 mg/kg/injection, schedule: Q01DX005 (ip), vehicle: Klucel (hydroxypropylcellulose) (HPC) 113 % of control | endpoint: median survival time, dose: 1.0 mg/kg/injection, schedule: Q01DX005 (ip), vehicle: Klucel (hydroxypropylcellulose) (HPC) 118 % of control | endpoint: median survival time, dose: 2.0 mg/kg/injection, schedule: Q01DX005 (ip), vehicle: Klucel (hydroxypropylcellulose) (HPC) 122 % of control

Cc1ccc(C)c(C(=O)O)c1N
inactive: [1] 95 % of control | [2] 95 % of control | [3] 100 % of control

O=C(CCl)N1CCC(CC2(c3cc4ccccc4[nH]3)OCCO2)CC1
inactive: endpoint: mean survival time, dose: 50.0 mg/kg/injection, schedule: Q04DX002 (ip), vehicle: other 106 % of control | endpoint: mean survival time, dose: 100.0 mg/kg/injection, schedule: Q04DX002 (ip), vehicle: other 109 % of control | endpoint: mean survival time, dose: 200.0 mg/kg/injection, schedule: Q04DX002 (ip), vehicle: other 91 % of control

COC(Cc1ccccc1)(c1ccccc1)c1ccccc1
inactive: endpoint: mean survival time, dose: 100.0 mg/kg/injection, schedule: Q04DX002 (ip), vehicle: saline with Tween-80 95 % of control | endpoint: mean survival time, dose: 200.0 mg/kg/injection, schedule: Q04DX002 (ip), vehicle: saline with Tween-80 102 % of control | endpoint: mean survival time, dose: 400.0 mg/kg/injection, schedule: Q04DX002 (ip), vehicle: saline with Tween-80 91 % of control

COc1ccc(Cc2ccc(O)cc2)cc1
inactive: [8] 101 % of control | [9] 101 % of control | endpoint: mean survival time, dose: 400.0 mg/kg/injection, schedule: Q01DX009 (ip), vehicle: other 104 % of control

Cc1ccc([N+](=O)[O-])cc1NC(=O)C(Cl)(Cl)Cl
inactive: [1] 93 % of control | [2] 93 % of control | [3] 107 % of control

CCOC(=O)/C(C#N)=C1/C=CC=CN1
inactive: [10] 98 % of control | [1] 102 % of control | [11] 102 % of control | [2] 110 % of control | [12] 100 % of control | [3] 103 % of control

Cc1ccc(S(=O)(=O)N2CCC(C(=O)O)(c3ccccc3)CC2)cc1
inactive: [1] 113 % of control | [2] 98 % of control | [3] 95 % of control

CNC(=O)N(C)c1ccccc1
inactive: endpoint: mean survival time, dose: 100.0 mg/kg/injection, schedule: Q04DX002 (ip), vehicle: saline 101 % of control | endpoint: mean survival time, dose: 200.0 mg/kg/injection, schedule: Q04DX002 (ip), vehicle: saline 101 % of control | endpoint: mean survival time, dose: 400.0 mg/kg/injection, schedule: Q04DX002 (ip), vehicle: saline 101 % of control

Nc1cc(C(F)(F)F)ccc1/C(=C/c1ccc(Cl)cc1)C(=O)O
inactive: endpoint: mean survival time, dose: 75.0 mg/kg/injection, schedule: Q04DX003 (ip), vehicle: saline 103 % of control | endpoint: mean survival time, dose: 150.0 mg/kg/injection, schedule: Q04DX003 (ip), vehicle: saline 102 % of control

CN(C)c1ccc(/C=N/NC(=O)CC2CCCCC2)cc1
inactive: [10] 90 % of control | [11] 93 % of control | [12] 93 % of control

Nc1ncnc2c1c1c(SCc3ccc([N+](=O)[O-])cc3)ncnc1n2C1OC(CO)C(O)C1O (configuration not stated)
inactive: endpoint: mean survival time, dose: 6.25 mg/kg/injection, schedule: Q01DX005 (ip), vehicle: other 104 % of control | endpoint: mean survival time, dose: 12.5 mg/kg/injection, schedule: Q01DX005 (ip), vehicle: other 104 % of control | endpoint: mean survival time, dose: 25.0 mg/kg/injection, schedule: Q01DX005 (ip), vehicle: other 104 % of control | endpoint: mean survival time, dose: 50.0 mg/kg/injection, schedule: Q01DX005 (ip), vehicle: other 113 % of control | endpoint: mean survival time, dose: 100.0 mg/kg/injection, schedule: Q01DX005 (ip), vehicle: other 103 % of control | endpoint: mean survival time, dose: 200.0 mg/kg/injection, schedule: Q01DX005 (ip), vehicle: other 98 % of control

CCCCCCCCCCCCNC(=O)c1ccc[n+](C)c1
inactive: endpoint: mean survival time, dose: 12.5 mg/kg/injection, schedule: Q01DX009 (ip), vehicle: saline 88 % of control | endpoint: mean survival time, dose: 12.5 mg/kg/injection, schedule: Q04DX003 (ip), vehicle: saline 93 % of control | endpoint: mean survival time, dose: 25.0 mg/kg/injection, schedule: Q04DX003 (ip), vehicle: saline 97 % of control | endpoint: mean survival time, dose: 50.0 mg/kg/injection, schedule: Q04DX003 (ip), vehicle: saline 101 % of control

CCCCCCCCCc1ccc(OCCOCCOCCOCCOCCOCCOCCCS(=O)(=O)[O-])cc1.CCCCCCCCCc1ccc(OCCOCCOCCOCCOCCOCCOCCCS(=O)(=O)[O-])cc1.NC1CCCCC1N.[Pt+4]
inactive: endpoint: median survival time, dose: 3.12 mg/kg/injection, schedule: Q04DX003 (ip), vehicle: saline with Tween-80 98 % of control | endpoint: median survival time, dose: 6.25 mg/kg/injection, schedule: Q04DX003 (ip), vehicle: saline with Tween-80 98 % of control | endpoint: median survival time, dose: 12.5 mg/kg/injection, schedule: Q04DX003 (ip), vehicle: saline with Tween-80 98 % of control | endpoint: median survival time, dose: 25.0 mg/kg/injection, schedule: Q04DX003 (ip), vehicle: saline with Tween-80 95 % of control | endpoint: median survival time, dose: 50.0 mg/kg/injection, schedule: Q04DX003 (ip), vehicle: saline with Tween-80 97 % of control | endpoint: median survival time, dose: 100.0 mg/kg/injection, schedule: Q04DX003 (ip), vehicle: saline with Tween-80 102 % of control | endpoint: median survival time, dose: 200.0 mg/kg/injection, schedule: Q04DX003 (ip), vehicle: saline with Tween-80 103 % of control

CCOC(=O)Cc1cnc(SC)nc1Nc1ccc(C)cc1
inactive: [6] 97 % of control | [7] 108 % of control | endpoint: mean survival time, dose: 400.0 mg/kg/injection, schedule: Q01DX001 (ip), vehicle: saline with Tween-80 106 % of control

CS(=O)(=O)Nc1ccc(CC#N)cc1
inactive: [10] 98 % of control | [1] 101 % of control | [11] 101 % of control | [2] 107 % of control | [12] 102 % of control | [3] 109 % of control
